Earlier results in patent US11426447B2, “Neuregulin for the treatment of tumors of the nervous system” (LEIBNIZ-INSTITUT FUR …, priority 2016, dated 2022).

System: schwannoma
Conditions: cited from earlier work

## bevacizumab
NF2 patients (Plotkin et al., 2009)
  efficacy for schwannoma growth control and hearing improvement: limited efficacy
human, in vivo
  side effects: severe side effects
